Here are results for three substances from patent US7538096B2, “Treatment and prevention of abnormal cellular proliferation” (The General Hospital Corporation, priority 2004, dated 2009).

The test system of series [1] is pulmonary artery smooth muscle cell. To be noted: in vivo, FIG. 4.
Series [2] has as its system bovine pulmonary artery smooth muscle cells. The conditions noted are these: in vitro, in comparison to non-acylated heparin fragments.
Series [3] concerns pulmonary hypertension induced by hypoxia. To be noted: pig lung, FIG. 5.
The subject of series [4] is fibroblast. Kind of series: fibroblast proliferation. The conditions noted are these: unpublished data. It counts as cell-based.
The subject of series [5] is pulmonary fibrosis in response to bleomycin. Kind of series: pulmonary fibrosis in the rat in response to bleomycin. It counts as in vivo.
The next series has as its system tumor grown in SCID mice. As to the kind of experiment: apoptosis index in tumor grown in SCID mice (FIG. 19). It is filed as in vivo.
The subject of series [6] is fibroblast. To be noted: Dahlberg et al. Am Rev. Respir. Dis. 143:A357, 1993; cited from earlier work.
Series [7] has as its system coagulation. Kind of series: coagulation time (FIG. 13). To be noted: for coagulation time: FIG. 13.
A short description of series [8]: histology of tumor tissue and organs from SCID mice bearing A549 cell tumor (FIGS. 14-18). It is filed as in vivo.
The subject of the next series is Rb. Kind of series: expression of Rb gene product in A549 cell tumor tissue (FIG. 21). To be noted: A549 cell tumor tissue grown in SCID mice, dose dependent, lesser effect than on p27/KIP1, FIG. 21. It counts as in vivo.
For series [9], the system named is coagulation. Kind of series: anticoagulant property (no test named).
Series [10] relates to DMS79 (small cell lung carcinoma) cell tumor. As to the kind of experiment: DMS79 cell tumor growth in SCID mice (FIGS. 9-10). It counts as in vivo. The conditions noted are these: dose dependent.
The test system of series [11] is A549 (non-small cell lung carcinoma) cell tumor. As to the kind of experiment: A549 cell tumor growth in SCID mice (FIGS. 6-8). It counts as in vivo. The conditions noted are these: dose dependent.
The test system of series [12] is HCT116 (colon cancer) cell tumor. Kind of series: HCT116 cell tumor growth in SCID mice (FIGS. 11-12). It is filed as in vivo. To be noted: dose dependent.
The next series deals with p27/KIP1. The conditions noted are these: A549 cell tumor tissue grown in SCID mice, dose dependent, FIG. 20.
In a further series the test system is E2F1. Kind of series: expression of E2F1 protein in A549 cell tumor tissue (FIG. 22). It counts as in vivo. To be noted: A549 cell tumor tissue grown in SCID mice, dose dependent.

Where two headings read alike, the source gives them in different places.

Consider “O-Hexanoyl derivative of periodate-oxidized heparin fragments [hexanoylated heparin]”, for which, in series [1], the “pulmonary artery smooth muscle cell proliferation” value is recorded as “significantly inhibited”. The antiproliferative effect entry in series [2] is “significantly enhanced”. Besides, the “development of pulmonary hypertension” value in series [3] is “significantly inhibited”. Besides, the fibroblast proliferation result in the series on fibroblast [4] is reported as “can also inhibit”.
As to “heparin [Native heparin, reference compound]”, the pulmonary fibrosis result in [5] was “can inhibit”. Also, in the series with tumor grown in SCID mice, the apoptosis index entry was “significantly induces apoptosis”. In addition, the fibroblast proliferation entry with fibroblast [6] is recorded as “can inhibit”. In the series on coagulation [7], the coagulation time result is listed as “increased”. Moreover, the “hemorrhage in A549 cell tumor tissue (histology)” value in series [8] (100 mg/kg, SCID mice, FIG. 14) is given as “Hemorrhage was detected”.
Consider “O-butanoylated LMW Heparin [butanoylated heparin]”, for which the apoptosis index entry in the series with tumor grown in SCID mice is “induction of apoptosis”. In the series with coagulation [7], the coagulation time entry was “no significant effect”. Further, the anticoagulant effects entry with coagulation [7] (compared to non-acylated controls, FIGS. 13 and 14) is given as “very low”. The “expression of Rb gene product” value with Rb is “decreased”. For the same substance, in the series with coagulation [9], the anticoagulant property entry is reported as “virtually no”. In addition, the tumor growth entry in [10] (FIG. 9), in series [11] (FIG. 6), in series [12] (FIG. 11) and in series [12] (FIG. 12) was “significantly inhibited” each time. Moreover, the tumor weight entry in series [10] (FIG. 10) and in [11] (FIG. 7) was “significantly decreased” in each case. The “percent inhibition of tumor growth” value in series [11] (FIG. 8) is listed as “significantly inhibited”. For the same substance, in series [8] (animals tested, FIG. 15-18), the “toxic effect on heart, liver, kidney, and lung” value was “no toxic effect”. Moreover, in the series on p27/KIP1, the “expression of p27/KIP1 gene product” value is recorded as “significantly inhibited”. Moreover, the fibroblast proliferation result in the series on fibroblast [4] is listed as “can also inhibit”. Moreover, the “expression of E2F1 protein” value in the series on E2F1 is recorded as “significantly inhibited”.
